# Experimental data reported in patent US20100298141A1, “SUBSTITUTED PYRIDINE N-OXIDE HERBICIDES” (E. I. DU PONT DE NEMOURS AND COMPANY, priority 2007, published 2010).
# Tests used:
# catchweed bedstraw = assay: Test C pre-/postemergence test; type: in vivo, Galium aparine; details: for Plant response rating (0 to 100), Galium: 250 g ai/ha
# In short: (§1)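 Seeds were planted and treated preemergence with test chemical in a non-phytotoxic solvent mixture containing surfactant. Postemergence applications of the same formulation went onto plants 2 to 18 cm tall (1- to 4-leaf stage). A dash marks no test result.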
# kochia = assay: Test C pre-/postemergence test; type: in vivo, Kochia scoparia
# In short: as §1
# blackgrass = assay: Test C pre-/postemergence test; type: in vivo, Alopecurus myosuroides; details: for Plant response rating (0 to 100), Blackgrass: 250 g ai/ha
# In short: as §1
# crabgrass = assay: Test C pre-/postemergence test; type: in vivo, Digitaria sanguinalis; details: for Plant response rating (0 to 100), Crabgrass, Large: 250 g ai/ha
# In short: as §1
# rice = assay: Test C flooded paddy test; type: in vivo, Oryza sativa; details: Flood
# In short: (§2)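 Visual injury ratings against untreated controls, taken 13 to 15 days after compound was added to paddy water standing 3 cm above the soil.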
# wheat = assay: Test C pre-/postemergence test; type: in vivo, Triticum aestivum
# In short: as §1
# corn = assay: Test A pre-/postemergence greenhouse test; type: in vivo, Zea mays; details: for Corn plant response rating: 0 to 100 scale; for Plant response rating, Corn: 0 to 100 scale where 0 is no effect and 100 is complete control
# In short: (§3)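 Untreated controls served as the reference for visual injury ratings taken about ten days after spraying. The non-phytotoxic solvent/surfactant formulation was applied preemergence to seeded loam and sand and postemergence to plants two to ten cm high.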
# redroot pigweed = assay: Test A pre-/postemergence greenhouse test; type: in vivo, Amaranthus retroflexus; details: for Pigweed plant response rating: 0 to 100 scale; for Plant response rating, Pigweed: 0 to 100 scale where 0 is no effect and 100 is complete control
# In short: as §3
# wild oat = assay: Test C pre-/postemergence test; type: in vivo, Avena fatua
# In short: as §1
# barnyardgrass = assay: Test C flooded paddy test; type: in vivo, Echinochloa crus-galli; details: Flood
# In short: as §2
# velvetleaf = assay: Test C pre-/postemergence test; type: in vivo, Abutilon theophrasti
# In short: as §1
# pigweed = assay: Test C pre-/postemergence test; type: in vivo, Amaranthus retroflexus
# In short: as §1
# duck salad = assay: Test C flooded paddy test; type: in vivo, Heteranthera limosa; details: Flood
# In short: as §2
# [1] = system: common (oilseed) sunflower; assay: Test C pre-/postemergence test; type: in vivo, Helianthus annuus
# In short: as §1
# Surinam grass = assay: Test C pre-/postemergence test; type: in vivo, Brachiaria decumbens
# In short: as §1
# bermudagrass = assay: Test C pre-/postemergence test; type: in vivo, Cynodon dactylon; details: for Plant response rating (0 to 100), Bermudagrass: 250 g ai/ha
# In short: as §1
# eastern black nightshade = assay: Test C pre-/postemergence test; type: in vivo, Solanum ptycanthum
# In short: as §1
# [2] = 31 g ai/ha, Preemergence, scale 0 to 100
# [3] = 62 g ai/ha, preemergence, scale 0 (no effect) to 100 (complete control)
# [4] = preemergence, 125 g ai/ha, scale 0 (no effect) to 100 (complete control)
# [5] = 31 g ai/ha, scale 0 to 100 (0 no effect, 100 complete control)
# [6] = 62 g ai/ha, scale 0 to 100, 0 no effect, 100 complete control, 13 to 15 days
# [7] = 125 g ai/ha, scale 0 to 100, 0 no effect, 100 complete control, 13 to 15 days
# [8] = 250 g ai/ha, scale 0 to 100 (0 no effect, 100 complete control)
# [9] = Postemergence, 125 g ai/ha, 0 is no effect, 100 is complete control
# [10] = Postemergence, 500 g ai/ha, 0 is no effect, 100 is complete control
# [11] = Preemergence, 125 g ai/ha, 0 no effect, 100 complete control
# [12] = 62 g ai/ha, Preemergence, scale 0 to 100
# [13] = Preemergence, 31 g ai/ha, scale 0 to 100 (0 no effect, 100 complete control)
structure (smiles),measurement,setting,value
CC(c1c(C(F)(F)F)nn(C)c1Cl)S(=O)(=O)c1cccc[n+]1[O-] (centres unmarked) [Compound 10],Galium plant response rating,catchweed bedstraw; [2],0
same,Galium plant response rating,catchweed bedstraw; [3],50
same,"Plant response rating (0 to 100), Galium",catchweed bedstraw; Preemergence,100
same,Galium plant response rating,catchweed bedstraw; [4],100
same,Kochia plant response rating,kochia; [2],0
same,Kochia plant response rating,kochia; [3],40
same,"Plant response rating (0 to 100), Kochia","kochia; Preemergence, 250 g ai/ha",100
same,Kochia plant response rating,kochia; [4],80
same,Blackgrass plant response rating,blackgrass; [2],0
same,Blackgrass plant response rating,blackgrass; [3],70
same,"Plant response rating (0 to 100), Blackgrass",blackgrass; Preemergence,100
same,Blackgrass plant response rating,blackgrass; [4],98
same,"Crabgrass, Large plant response rating",crabgrass; [2],100
same,"Crabgrass, Large plant response rating",crabgrass; [3],100
same,"Plant response rating (0 to 100), Crabgrass, Large",crabgrass; Preemergence,100
same,"Crabgrass, Large plant response rating",crabgrass; [4],100
same,"Plant response rating, Rice",rice; [5],0
same,"Plant response rating, Rice",rice; [6],25
same,"Plant response rating, Rice",rice; [7],70
same,"Plant response rating, Rice",rice; [8],80
same,Wheat plant response rating,wheat; [3],35
same,"Plant response rating (0 to 100), Wheat","wheat; Preemergence, 250 g ai/ha",80
same,Wheat plant response rating,wheat; [4],60
same,Corn plant response rating,corn; [9],40
same,Corn plant response rating,corn; [10],60
same,Corn plant response rating,corn; [11],0
same,"Plant response rating, Corn","corn; Preemergence, 500 g ai/ha",50
same,Pigweed plant response rating,redroot pigweed; [9],30
same,Pigweed plant response rating,redroot pigweed; [10],60
same,Pigweed plant response rating,redroot pigweed; [11],100
same,"Plant response rating, Pigweed","redroot pigweed; Preemergence, 500 g ai/ha",100
same,"Oat, Wild plant response rating",wild oat; [2],0
same,"Oat, Wild plant response rating",wild oat; [3],0
same,"Plant response rating (0 to 100), Oat, Wild","wild oat; Preemergence, 250 g ai/ha",65
same,"Oat, Wild plant response rating",wild oat; [4],60
same,"Plant response rating, Barnyardgrass",barnyardgrass; [5],0
same,"Plant response rating, Barnyardgrass",barnyardgrass; [6],30
same,"Plant response rating, Barnyardgrass",barnyardgrass; [7],75
same,"Plant response rating, Barnyardgrass",barnyardgrass; [8],85
same,Velvetleaf plant response rating,velvetleaf; [3],0
same,"Plant response rating (0 to 100), Velvetleaf","velvetleaf; Preemergence, 250 g ai/ha",75
same,Velvetleaf plant response rating,velvetleaf; [4],5
same,Pigweed plant response rating,pigweed; [2],70
same,Pigweed plant response rating,pigweed; [3],100
same,"Plant response rating (0 to 100), Pigweed","pigweed; Preemergence, 250 g ai/ha",100
same,Pigweed plant response rating,pigweed; [4],100
same,"Plant response rating, Ducksalad",duck salad; [5],30
same,"Plant response rating, Ducksalad",duck salad; [6],80
same,"Plant response rating, Ducksalad",duck salad; [7],85
same,"Plant response rating, Ducksalad",duck salad; [8],90
same,Sunflower plant response rating,[1]; [3],0
same,"Plant response rating (0 to 100), Sunflower","[1]; Preemergence, 250 g ai/ha",100
same,Sunflower plant response rating,[1]; [4],85
same,Surinam Grass plant response rating,Surinam grass; [3],98
same,"Plant response rating (0 to 100), Surinam Grass","Surinam grass; Preemergence, 250 g ai/ha",100
same,Surinam Grass plant response rating,Surinam grass; [4],100
same,Bermudagrass plant response rating,bermudagrass; [2],95
same,Bermudagrass plant response rating,bermudagrass; [3],100
same,"Plant response rating (0 to 100), Bermudagrass",bermudagrass; Preemergence,100
same,Bermudagrass plant response rating,bermudagrass; [4],100
same,Nightshade plant response rating,eastern black nightshade; [2],90
same,Nightshade plant response rating,eastern black nightshade; [3],98
same,"Plant response rating (0 to 100), Nightshade","eastern black nightshade; Preemergence, 250 g ai/ha",100
same,Nightshade plant response rating,eastern black nightshade; [4],100
Cn1nc(C(F)(F)F)c(CS(=O)(=O)c2cc(C(C)(C)C)cc[n+]2[O-])c1OC(F)F [Compound 25],Galium plant response rating,catchweed bedstraw; [12],98
same,"Plant response rating, Galium",catchweed bedstraw; [13],70
same,"Plant response rating (0 to 100), Galium",catchweed bedstraw; Preemergence,100
same,"Plant response rating, Kochia",kochia; [13],0
same,Blackgrass plant response rating,blackgrass; [12],0
same,"Plant response rating, Blackgrass",blackgrass; [13],0
same,"Plant response rating (0 to 100), Blackgrass",blackgrass; Preemergence,0
same,Blackgrass plant response rating,blackgrass; [4],0
same,"Crabgrass, Large plant response rating",crabgrass; [12],100
same,"Plant response rating, Crabgrass, Large",crabgrass; [13],100
same,"Plant response rating (0 to 100), Crabgrass, Large",crabgrass; Preemergence,100
same,"Plant response rating, Rice",rice; [5],0
same,"Plant response rating, Rice",rice; [6],0
same,"Plant response rating, Rice",rice; [7],65
same,"Plant response rating, Rice",rice; [8],75
same,Wheat plant response rating,wheat; [12],20
same,"Plant response rating, Wheat",wheat; [13],0
same,Corn plant response rating,corn; [9],0
same,Corn plant response rating,corn; [10],20
same,Corn plant response rating,corn; [11],0
same,"Plant response rating, Corn","corn; Preemergence, 500 g ai/ha",60
same,Pigweed plant response rating,redroot pigweed; [9],30
same,Pigweed plant response rating,redroot pigweed; [10],40
same,Pigweed plant response rating,redroot pigweed; [11],100
same,"Plant response rating, Pigweed","redroot pigweed; Preemergence, 500 g ai/ha",100
same,"Oat, Wild plant response rating",wild oat; [12],85
same,"Plant response rating, Oat, Wild",wild oat; [13],0
same,"Plant response rating, Barnyardgrass",barnyardgrass; [5],0
same,"Plant response rating, Barnyardgrass",barnyardgrass; [6],0
same,"Plant response rating, Barnyardgrass",barnyardgrass; [7],30
same,"Plant response rating, Barnyardgrass",barnyardgrass; [8],80
same,Velvetleaf plant response rating,velvetleaf; [12],80
same,"Plant response rating, Velvetleaf",velvetleaf; [13],20
same,Pigweed plant response rating,pigweed; [12],100
same,"Plant response rating, Pigweed",pigweed; [13],100
same,"Plant response rating, Ducksalad",duck salad; [5],0
same,"Plant response rating, Ducksalad",duck salad; [6],40
same,"Plant response rating, Ducksalad",duck salad; [7],60
same,"Plant response rating, Ducksalad",duck salad; [8],80
same,Sunflower plant response rating,[1]; [12],0
same,"Plant response rating, Sunflower",[1]; [13],0
same,Surinam Grass plant response rating,Surinam grass; [12],50
same,"Plant response rating, Surinam Grass",Surinam grass; [13],0
same,Bermudagrass plant response rating,"bermudagrass; 62 g ai/ha, Preemergence, scale 0 to 100 (0 no effect, 100 complete control)",100
same,"Plant response rating, Bermudagrass",bermudagrass; [13],75
same,"Plant response rating (0 to 100), Bermudagrass",bermudagrass; Preemergence,100
same,Bermudagrass plant response rating,bermudagrass; [4],100
same,Nightshade plant response rating,eastern black nightshade; [12],100
same,"Plant response rating, Nightshade",eastern black nightshade; [13],100
